Test results: PubChem BioAssay (NCI)
Where “and” joins values, the source holds several entries; their conditions need not be identical. Identical values can stand only once.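 All cell lines were grown in 96-well plates and treated with compound for 48 hours. At the GI50, growth is halved. TGI: concentration producing complete growth inhibition.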

Columns and labels:
Assay in all cases: DTP human tumour cell line panel, 48 h
786-0 renal = system: 786-0 renal
A549 NSCLC = system: A549 NSCLC
CAKI-1 renal = system: CAKI-1 renal
HCC-2998 colon = system: HCC-2998 colon
HT29 colon = system: HT29 colon
PC-3 prostate = system: PC-3 prostate
SK-OV-3 ovarian = system: SK-OV-3 ovarian
SN12C renal = system: SN12C renal
SR leukemia = system: SR leukemia
TK-10 renal = system: TK-10 renal

SMILES: O=C1C=C(Nc2ccccc2)c2ncccc2C1=O
- GI50 (786-0 renal): 1.52 µM
- TGI (786-0 renal): 3.05 µM
- GI50 (A549 NSCLC): 0.476 µM
- TGI (A549 NSCLC): 2.3 µM
- GI50 (CAKI-1 renal): 1.39 µM
- TGI (CAKI-1 renal): 2.7 µM
- GI50 (HCC-2998 colon): 1.55 µM
- TGI (HCC-2998 colon): 3 µM
- GI50 (HT29 colon): 2.78 µM
- TGI (HT29 colon): > 26.7 µM
- GI50 (PC-3 prostate): 0.439 µM
- TGI (PC-3 prostate): 2.29 µM
- GI50 (SK-OV-3 ovarian): 1.75 µM
- TGI (SK-OV-3 ovarian): 3.16 µM
- GI50 (SN12C renal): 0.29 µM
- TGI (SN12C renal): 0.829 µM
- GI50 (SR leukemia): 0.691 µM
- TGI (SR leukemia): > 100 µM
- GI50 (TK-10 renal): 1.82 µM
- TGI (TK-10 renal): 3.28 µM

SMILES: COc1cc2c(c(OC)c1OC)-c1ccc([O-])c(=O)cc1[C@@H](NC(C)=O)CC2.COc1cc2c(c(OC)c1OC)-c1ccc([O-])c(=O)cc1[C@@H](NC(C)=O)CC2.[Cu+2]
- GI50 (786-0 renal): 7.9 µM
- TGI (786-0 renal): > 100 µM
- GI50 (A549 NSCLC): 6.5 µM
- TGI (A549 NSCLC): > 100 µM
- GI50 (CAKI-1 renal): 4.96 µM
- TGI (CAKI-1 renal): 63.1 µM
- GI50 (HCC-2998 colon): 2.58 µM
- TGI (HCC-2998 colon): 7.2 µM
- GI50 (HT29 colon): 3.43 µM
- TGI (HT29 colon): > 100 µM
- GI50 (PC-3 prostate): 3.63 µM
- TGI (PC-3 prostate): > 100 µM
- GI50 (SK-OV-3 ovarian): 2.95 µM
- TGI (SK-OV-3 ovarian): > 100 µM
- GI50 (SN12C renal): 4.97 µM
- TGI (SN12C renal): > 100 µM
- GI50 (SR leukemia): 1.54 µM
- TGI (SR leukemia): 6.89 µM
- GI50 (TK-10 renal): 9.55 µM
- TGI (TK-10 renal): > 100 µM

SMILES: CNC(=O)c1ccc(Nc2ncc(C(F)(F)F)c(NCc3nccnc3N(C)S(C)(=O)=O)n2)cc1
- GI50 (786-0 renal): 2.17 µM and 1.98 µM and 2.01 µM
- TGI (786-0 renal): > 10 µM and 11.6 µM and 18.3 µM
- GI50 (A549 NSCLC): 2.79 µM and 2.94 µM and 3.13 µM
- TGI (A549 NSCLC): > 10 µM and 8.79 µM and 12.1 µM
- GI50 (CAKI-1 renal): 1.8 µM and 1.41 µM and 1.88 µM
- TGI (CAKI-1 renal): > 10 µM and 8.35 µM and 12.1 µM
- GI50 (HCC-2998 colon): 3.68 µM and 2.54 µM and 3.86 µM
- TGI (HCC-2998 colon): > 10 µM and 12.9 µM and 18 µM
- GI50 (HT29 colon): 3.41 µM and 2.75 µM and 3.21 µM
- TGI (HT29 colon): > 10 µM and 8.63 µM and 11.3 µM
- GI50 (PC-3 prostate): 3.54 µM and 3.41 µM and 2.85 µM
- TGI (PC-3 prostate): > 10 µM and 14.3 µM and 13.2 µM
- GI50 (SK-OV-3 ovarian): 3.16 µM and 2.27 µM and 2.41 µM
- TGI (SK-OV-3 ovarian): > 10 µM and 9.35 µM and 11.4 µM
- GI50 (SN12C renal): 3.46 µM and 3.4 µM and 3.41 µM
- TGI (SN12C renal): > 10 µM and 11.8 µM and 14.7 µM
- GI50 (SR leukemia): 1.91 µM and 1.33 µM and 2.39 µM
- TGI (SR leukemia): 8.17 µM and 7.7 µM and 9.42 µM
- GI50 (TK-10 renal): 1.65 µM and 1.7 µM and 3.09 µM
- TGI (TK-10 renal): > 10 µM and 10.4 µM and 13.3 µM

SMILES: Cc1cc(NC(=O)c2ccc(NS(=O)(=O)CCO)cc2N2CCC3(CC2)CC3)nc(N2CCC(F)(F)CC2)n1
- GI50 (786-0 renal): 14.9 µM
- TGI (786-0 renal): 30.6 µM
- GI50 (A549 NSCLC): 14.2 µM
- TGI (A549 NSCLC): 30.4 µM
- GI50 (CAKI-1 renal): 10.9 µM
- TGI (CAKI-1 renal): 23.2 µM
- GI50 (HCC-2998 colon): 1.53 µM
- TGI (HCC-2998 colon): 17.8 µM
- GI50 (HT29 colon): 0.0755 µM
- TGI (HT29 colon): 14.2 µM
- GI50 (PC-3 prostate): 7.46 µM
- TGI (PC-3 prostate): 23.6 µM
- GI50 (SK-OV-3 ovarian): 11.1 µM
- TGI (SK-OV-3 ovarian): 26 µM
- GI50 (SN12C renal): 11.7 µM
- TGI (SN12C renal): 24.4 µM
- GI50 (SR leukemia): 1.68 µM
- TGI (SR leukemia): 25.3 µM
- GI50 (TK-10 renal): 17.7 µM
- TGI (TK-10 renal): 32.6 µM

SMILES: CCCCCCCCCCCCCOC(=O)c1c(C)[nH]c(/C=C2\N=C(c3ccc[nH]3)C=C2OC)c1C
- GI50 (786-0 renal): 0.161 µM
- TGI (786-0 renal): 12.7 µM
- GI50 (A549 NSCLC): 0.0419 µM
- TGI (A549 NSCLC): 0.505 µM
- GI50 (CAKI-1 renal): 0.0336 µM
- GI50 (HCC-2998 colon): 0.0307 µM
- TGI (HCC-2998 colon): > 44.4 µM
- GI50 (HT29 colon): < 0.0126 µM
- TGI (HT29 colon): > 100 µM
- GI50 (PC-3 prostate): 0.02 µM
- TGI (PC-3 prostate): > 100 µM
- GI50 (SK-OV-3 ovarian): 2.8 µM
- TGI (SK-OV-3 ovarian): 37.1 µM
- GI50 (SN12C renal): 0.156 µM
- TGI (SN12C renal): > 100 µM
- GI50 (SR leukemia): < 0.0118 µM
- TGI (SR leukemia): 0.145 µM
- GI50 (TK-10 renal): 0.174 µM
- TGI (TK-10 renal): 20 µM

SMILES: O=S(=O)(NCCNc1cc(-c2cn(-c3ccccc3)nc2-c2cccc(O)c2)ccn1)c1ccc(C(F)(F)F)cc1
- GI50 (786-0 renal): 1.72 µM
- TGI (786-0 renal): 4.45 µM
- GI50 (A549 NSCLC): 3.89 µM
- TGI (A549 NSCLC): 18.2 µM
- GI50 (CAKI-1 renal): 1.94 µM
- TGI (CAKI-1 renal): 5.35 µM
- GI50 (HCC-2998 colon): 2.04 µM
- TGI (HCC-2998 colon): 4.45 µM
- GI50 (HT29 colon): 2.04 µM
- TGI (HT29 colon): 5.44 µM
- GI50 (PC-3 prostate): 2.47 µM
- TGI (PC-3 prostate): 10.9 µM
- GI50 (SK-OV-3 ovarian): 3.79 µM
- TGI (SK-OV-3 ovarian): 16.2 µM
- GI50 (SN12C renal): 2.31 µM
- TGI (SN12C renal): 5.49 µM
- GI50 (SR leukemia): 1.31 µM
- TGI (SR leukemia): 4.29 µM
- GI50 (TK-10 renal): 2.81 µM
- TGI (TK-10 renal): 18.7 µM

SMILES: CC[C@H](C)c1occ2c(O)c(C(=O)O)c(=O)cc-2c1C
- TGI (786-0 renal): > 100 µM
- TGI (A549 NSCLC): > 100 µM
- TGI (CAKI-1 renal): > 100 µM
- TGI (HCC-2998 colon): 36.8 µM
- TGI (HT29 colon): 62.3 µM
- TGI (PC-3 prostate): > 100 µM
- TGI (SK-OV-3 ovarian): 63.7 µM
- TGI (SN12C renal): 81.4 µM
- TGI (SR leukemia): 53.5 µM
- TGI (TK-10 renal): > 100 µM
